Measured values reported in US7553844B2 (Jarrow Formulas, Inc., priority 2003, dated 2009).

Tests used:
primary HIV-1 isolates = format: cell-based; conditions: 1 μM CQ; data not shown
Excerpt: (§1) Laboratory-adapted HIV-1IIIB and HIV-2CBL/20 strans, the primary isolates HIV-1UG3 (Clade A, R5) and HIV-1VI 829 (Clade C, R5), both obtained from antiretroviral-naive subjects were used. These viruses are fully described in the paper by Savarino A. et al. referenced above. The HIV-1PAVIA12 isolate was also used. It was donated by Dr. Maurizia Debiaggi, University of Pavia, Italy, who also performed its genotypic analysis. It belongs to Clade B and was isolated from an individual with HAART failure. […] Viral stocks were titrated biologically by the 50% endpoint dilution method, using MT-2 cells (laboratory strains) or PHA-activated peripheral blood mononuclear cells (PBMC) (primary isolates).
(§2) In acute infection assays, the appropriate cell types were incubated at 37° C. for 2 h with the viral stock suspensions at a multiplicity of infection (MOI) of approximately 0.1, unless otherwise specified. After three washes, cells were incubated in fresh culture medium for 7 days at 37° C., and cell-free supernatants at different intervals post-infection were harvested for ELISA measurement of HIV-1 p24 (NEN Life Science Prod., Boston Mass.) or HIV-2 p27 (Coulter, Hialeah, Fla.) (26, 33).
(§3) Tests were conducted to evaluate the concentrations of each drug in the different combinations that produced 90% inhibition of HIV-1 replication. For each drug combination, the FIC was determined. […]

UG3 (HIV-1 Clade A) = test: infection of PBMC with primary isolate UG3, p24; format: cell-based; conditions: without CQ
Excerpt: as §1, §2, §3

[1] = system: CQ-sensitive P. falciparum strain (3D7); test: P. falciparum LDH activity, CQ with or without PI, 3D7; format: cell-based, Plasmodium falciparum
Method: (§4) A fractional inhibitory concentration (FIC) was then calculated as drug EC90 of drug A in combination with drug 2/EC90 of drug B alone. The effect was considered to be synergistic when the sum of FICs was ≦0.5.
(§5) This assay is based on the principle that plasmodial lactate dehydrogenase (LDH) can use 3-acetylpyridine NAD (APAD) as a coenzyme, which is converted to APADH during lactate oxidation. All samples for LDH determination were measured spectrophotometrically at 650 nm. For these measurements, 10-50 μl of the malaria sample was added to the Mastat reagent, which is an optimized formulation for parasite LDH detection. The samples consisted of malaria cultures. All aliquots were added to 0.2 ml of the Malstat reagent using a 96-well microtiter plate format. The formation of APADH was determined at 650 nm using a multiwavelength plate reader. Each well of a test microtiter plate was automatically measured at 30-sec. intervals, and the individual data points were stored and subsequently plotted with a software program. The spectrophotometric assessment of LDH activity was facilitated by adding NBT (0.24 mM) and PES (0.033 mM) to Malstat reagent. As APADH is formed, the NBT is reduced and forms a formazan product that is blue and can be detected visually and measured at 650 nm. This assay is specific for parasitic LDH and is not influenced by the human enzyme. […]

HIV-1 IIIB = test: acute infection assay, HIV-1 p24 ELISA, MT-4 cells; format: cell-based; conditions: Human immunodeficiency virus 1, MT4; HIV-1 IIIB-infected MT-4 cells; data not shown
Excerpt: as §1, §2
A fractional inhibitory concentration (FIC) was then calculated as drug EC90 of drug A in combination with drug 2/EC90 of drug B alone. The effect was considered to be synergistic when the sum of FICs was ≦0.5. […]

[2] = system: CQ-resistant P. falciparum strain (W2); test: P. falciparum LDH activity, CQ with or without PI, W2; format: cell-based, Plasmodium falciparum
Method: as §4, §5

[3] = system: P. falciparum (3D7, Ibginovia); test: P. falciparum LDH activity, protease inhibitors alone; format: cell-based, Plasmodium falciparum; conditions: PI alone, 48 h, clinically observable concentrations
Method: Results are shown as a percentage of control values.
(§6) Ibginovia is an isolate obtained at the Istituto Superiore di Sanità, Rome, Italy, positive for mutations in the codons K76 and A220 of the pfcrt gene conferring CQ resistance. The parasite's origin is Nigeria. All parasites were maintained in vitro in RPMI 1640 medium to which was added human type A red blood cells (RBC) and 10% heat-inactivated human serum. All cultures were placed in a humidified incubator at 37° C. with a gas-controlled environment of 3% O2, 6% CO2, and 91% N2 and fed according to established procedures.
as §5, with “The samples consisted of malaria cultures. All aliquots were added to 0.2 ml of the Malstat reagent using a 96-well microtiter plate format.” left out, “The spectrophotometric assessment of LDH activity was facilitated by adding NBT (0.24 mM) and PES (0.033 mM) to Malstat reagent.” left out, “nm.” for “nm. This assay is specific for parasitic LDH and is not influenced by the human enzyme.”

[4] = system: CQ-resistant P. falciparum field isolate (Ibginovia); test: P. falciparum LDH activity, CQ with or without PI, Ibginovia; format: cell-based, Plasmodium falciparum; conditions: PI with CQ, 48 h; PI at sub-optimally inhibiting concentration
Excerpt: In order to illustrate typical results, data are shown as a mean ±S.D. optical density (O.D.) at the end of a reaction mediated by plasmodial lactate dehydrogenase (LDH), as described in the Materials and Methods of the EXAMPLES section. The O.D. values are directly proportional to P. falciparum cell viability.
as §6, with “All cultures were placed in a humidified incubator at 37° C. with a gas-controlled environment of 3% O2, 6% CO2, and 91% N2 and fed according to established procedures.” left out
This assay is based on the principle that plasmodial lactate dehydrogenase (LDH) can use 3-acetylpyridine NAD (APAD) as a coenzyme, which is converted to APADH during lactate oxidation. All samples for LDH determination were measured spectrophotometrically at 650 nm. […] The formation of APADH was determined at 650 nm using a multiwavelength plate reader. Each well of a test microtiter plate was automatically measured at 30-sec. intervals, and the individual data points were stored and subsequently plotted with a software program. […] As APADH is formed, the NBT is reduced and forms a formazan product that is blue and can be detected visually and measured at 650 nm. […]

P. berghei = test: murine malaria model, Balb/c mice infected with P. berghei; format: in vivo, Plasmodium berghei; conditions: 50 or 150 mg/kg intragastrically
Method: FIG. 6. Antimalarial effects of RTV in mice infected with Plasmodium berghei.
FIG. 6A. Effects of RTV (50 mg/kg) on P. berghei growth in Balb/c mice. Results are shown as an average ±S.D. of the percentage of parasitized red blood cells at different days of follow-up.
FIG. 6B. Effects of RTV (50 mg/kg) on survival of mice infected with P. berghei. Results are shown as Kaplan Meyer curves and the P value for difference in survival is reported.
FIG. 6C. Effects of RTV (150 mg/kg) on P. berghei growth in Balb/c mice. Results are shown as an average ±S.D. of the percentage of parasitized red blood cells at different days of follow-up.
FIG. 6D. Effects of RTV (150 mg/kg) on survival of mice infected with P. berghei. Results are shown as Kaplan Meyer curves and the P value for difference in survival is reported.
Parasitemia was determined by light microscopy using Giemsa-stained thin smears and with fluorescence microscopy using the dye benzothiocarboxypurine.
To evaluate the effects of a PI in an animal model of malaria, Balb/c mice were inoculated intraperitoneally with P. berghei and then divided into three groups: 1) mock-treated with an intragastric inoculation of phosphate-buffer saline (PBS), 2) treated intragastrically with the ritonavir diluent (i.e., a 47% alcoholic solution) in the absence of ritonavir (placebo), and 3) treated intragastrically with 50 or 150 mg/kg.

EC50 (HIV-1 IIIB) [nM] | SMILES | inhibitory effect of CQ alone (primary HIV-1 isolates) | p24 levels in supernatants (UG3 (HIV-1 Clade A); 100 nM IDV, 5 days after infection) | IDV concentration at which inhibitory effects were visible (UG3 (HIV-1 Clade A)) [µM] | sum of FICs ([1]; CQ+PI combination, 3D7 strain) | effects of IDV on CQ-response ([1]; IDV (5 μM) with CQ, compared with CQ-resistant strains) | sum of FICs ([2]; CQ+PI combination, W2 strain, ≦0.5 indicates synergism) | response to CQ in CQ-resistant P. falciparum ([2]; IDV (5 μM) with CQ, 48 h) | P. falciparum growth (LDH activity) [3] | response to CQ in CQ-resistant P. falciparum [4] | parasite multiplication in mice (P. berghei; Balb/c mice) | survival of treated mice (P. berghei; Kaplan-Mayer curves)
 | CCN(CC)CCCC(C)Nc1ccnc2cc(Cl)ccc12 (stereo not shown) [CQ, Chloroquine] | minimal |  |  |  |  |  |  |  |  |  | 
~10 | CC(C)(C)NC(=O)[C@@H]1CN(Cc2cccnc2)CCN1C[C@@H](O)C[C@@H](Cc1ccccc1)C(=O)N[C@H]1c2ccccc2C[C@H]1O [IDV, indinavir] |  | typical peak in the p24 levels in supernatants | 1 | > 0.5 | less dramatic | ≤ 0.5 | restored the response to CQ | dose-dependently inhibited P. falciparum growth |  |  | 
 | CC(C)c1nc(CN(C)C(=O)N[C@H](C(=O)N[C@@H](Cc2ccccc2)C[C@H](O)[C@H](Cc2ccccc2)NC(=O)OCc2cncs2)C(C)C)cs1 [RTV, ritonavir] |  |  |  |  |  |  |  | dose-dependently inhibited P. falciparum growth | restored the response to CQ | dose-dependently retarded parasite multiplication in mice | increased survival of treated mice in a significant manner
